System: PBMC (polyclonal gluten-specific T cells) of paediatric and adult CD patients
Assay: IFN-γ ELISpot of PBMC after 3 day oral wheat challenge (SFU, % of maximal peptide response, dominance scores, EC50; Examples 5-6)
Type: cell-based, human
Conditions: for IFN-γ ELISpot response: after oral wheat challenge; for Cross-reactive T cell response: following wheat challenge
[1] = patient A, 11-17 yrs, cut-off 10 SFU
[2] = patient E, H, 11-17 yrs, cut-off 10 SFU
[3] = patient F, 11-17 yrs, cut-off 10 SFU
[4] = patient G, 11-17 yrs, cut-off 10 SFU
[5] = patient H (HLA-DQ2.5 homozygote), 3-5yrs, cut-off 10 SFU
[6] = patient H, 11-17 yrs, cut-off 10 SFU
[7] = patient ID not given, 11-17 yrs, cut-off 10 SFU
[8] = patient N, 3-5yrs, cut-off 10 SFU
[9] = patient P, 11-17 yrs, cut-off 21.6 SFU
[10] = patient Q, 11-17 yrs, cut-off 10 SFU
[11] = patient U, H, 11-17 yrs, cut-off 10 SFU
[12] = patient V, 6-10 yrs, cut-off 10 SFU
[13] = patient Y, 6-10 yrs, cut-off 10 SFU
[14] = patient eleven, 6-10 yrs, cut-off 10 SFU
[15] = patient four, 3-5yrs, cut-off 10 SFU
[16] = patient seven, 6-10 yrs, cut-off 10.5 SFU
[17] = patient ten, 3-5yrs, cut-off 10 SFU
[18] = patient three, 6-10 yrs, cut-off 10.5 SFU
[19] = patient twelve, 11-17 yrs, cut-off 10 SFU
[20] = patient two, 3-5yrs, cut-off 10 SFU
[21] = patient ID not given, max peptide 95 SFU
[22] = patient eleven, max peptide 57 SFU
[23] = patient five, max peptide 48 SFU
[24] = patient four, max peptide 44 SFU
[25] = patient ten, max peptide 14.5 SFU
[26] = patient two, max peptide 60 SFU
[27] = patient D, max peptide 30.5 SFU

PIPQQPQQPFPLQ
IFN-γ ELISpot response [1]: 6 SFU
IFN-γ ELISpot response [2]: 5 SFU
IFN-γ ELISpot response [3]: 5 SFU
IFN-γ ELISpot response [4]: 2 SFU
IFN-γ ELISpot response [5]: 0 SFU
IFN-γ ELISpot response [6]: 10 SFU
Significant response as percentage of maximal peptide SFU (patient H, max peptide 17 SFU): ′′′ (41-70% = ′′′)
IFN-γ ELISpot response [7]: 3 SFU
Significant response as percentage of maximal peptide SFU (patient II, max peptide 15 SFU): + (>70% = +)
IFN-γ ELISpot response [8]: 1 SFU
IFN-γ ELISpot response [9]: 9 SFU
IFN-γ ELISpot response [10]: 13 SFU
Significant response as percentage of maximal peptide SFU (patient Q, max peptide 97 SFU): ′ (11-20% = ′)
IFN-γ ELISpot response [11]: 4 SFU
IFN-γ ELISpot response [12]: 9 SFU
IFN-γ ELISpot response [13]: 5 SFU
IFN-γ ELISpot response [14]: 4 SFU
IFN-γ ELISpot response [15]: 1 SFU
IFN-γ ELISpot response [16]: 14 SFU
Significant response as percentage of maximal peptide SFU (patient seven, max peptide 27 SFU): ′′′ (41-70% = ′′′)
IFN-γ ELISpot response [17]: 7 SFU
IFN-γ ELISpot response [18]: 1 SFU
IFN-γ ELISpot response [19]: 1 SFU
IFN-γ ELISpot response [20]: 2 SFU

LQPFPQPELPYSQP
IFN-γ ELISpot response [1]: 3 SFU
IFN-γ ELISpot response [2]: 104 SFU
Significant response as percentage of maximal peptide SFU (patient E, max peptide 224 SFU): ′′′ (41-70% = ′′′)
IFN-γ ELISpot response [3]: 81 SFU
Significant response as percentage of maximal peptide SFU (patient F, max peptide 178 SFU): ′′′ (41-70% = ′′′)
IFN-γ ELISpot response [4]: 5 SFU
IFN-γ ELISpot response [5]: 36 SFU
IFN-γ ELISpot response [6]: 15 SFU
Significant response as percentage of maximal peptide SFU (patient H, max peptide 17 SFU): + (>70% = +)
IFN-γ ELISpot response [7]: 53 SFU
Significant response as percentage of maximal peptide SFU [21]: ′′′ (41-70% = ′′′)
Significant response as percentage of maximal peptide SFU (patient II, max peptide 15 SFU): + (>70% = +)
Significant response as percentage of maximal peptide SFU (patient J, max peptide 196 SFU): ′′ (21-40% = ′′)
Significant response as percentage of maximal peptide SFU (patient M, max peptide 48 SFU): + (>70% = +)
IFN-γ ELISpot response [8]: 3 SFU
IFN-γ ELISpot response [9]: 37 SFU
Significant response as percentage of maximal peptide SFU (patient P, max peptide 64 SFU): ′′′ (41-70% = ′′′)
IFN-γ ELISpot response [10]: 29 SFU
Significant response as percentage of maximal peptide SFU (patient Q, max peptide 97 SFU): ′′ (21-40% = ′′)
IFN-γ ELISpot response [11]: 25 SFU
Significant response as percentage of maximal peptide SFU (patient U, max peptide 81 SFU): ′′ (21-40% = ′′)
IFN-γ ELISpot response [12]: 19 SFU
Significant response as percentage of maximal peptide SFU (patient V, max peptide 35 SFU): ′′′ (41-70% = ′′′)
IFN-γ ELISpot response [13]: 12 SFU
Significant response as percentage of maximal peptide SFU (patient Y, max peptide 16 SFU): + (>70% = +)
IFN-γ ELISpot response [14]: 39 SFU
Significant response as percentage of maximal peptide SFU [22]: ′′′ (41-70% = ′′′)
Significant response as percentage of maximal peptide SFU [23]: ′′′ (41-70% = ′′′)
IFN-γ ELISpot response [15]: 22 SFU
Significant response as percentage of maximal peptide SFU [24]: ′′′ (41-70% = ′′′)
IFN-γ ELISpot response [16]: 6 SFU
IFN-γ ELISpot response [17]: 11 SFU
Significant response as percentage of maximal peptide SFU [25]: + (>70% = +)
IFN-γ ELISpot response [18]: 71 SFU
IFN-γ ELISpot response [19]: 6 SFU
IFN-γ ELISpot response [20]: 13 SFU
Significant response as percentage of maximal peptide SFU [26]: ′ (11-20% = ′)

QPFPQPEQPTPIQ
Cross-reactive T cell response (subject A, 11-17yrs): 6 SFU
Significant response as a percentage of maximal peptide SFU (subject D, 11-17yrs): ′′ (21-40% = ′′)
Cross-reactive T cell response (subject D, 11-17yrs): 11 SFU
Significant response as a percentage of maximal peptide SFU (subject E, 11-17yrs): ′′ (21-40% = ′′)
Cross-reactive T cell response (subject E, 11-17yrs): 63 SFU
Cross-reactive T cell response (subject F, 11-17yrs): 73 SFU
Cross-reactive T cell response (subject G, 11-17yrs): 1 SFU
Cross-reactive T cell response (subject H): 1 SFU
Cross-reactive T cell response (subject I (3-5yrs/6-10yrs part)): 0 SFU
Significant response as a percentage of maximal peptide SFU (subject J): ′′′ (41-70% = ′′′)
Cross-reactive T cell response (subject J (3-5yrs/6-10yrs part)): 86 SFU
Cross-reactive T cell response (subject K (3-5yrs/6-10yrs part)): 7 SFU
Significant response as a percentage of maximal peptide SFU (subject P, 11-17yrs): ′′ (21-40% = ′′)
Cross-reactive T cell response (subject P, 11-17yrs): 23 SFU
Significant response as a percentage of maximal peptide SFU (subject Q, 11-17yrs): ′′′ (41-70% = ′′′)
Cross-reactive T cell response (subject Q, 11-17yrs): 39 SFU
Significant response as a percentage of maximal peptide SFU (subject T, 11-17yrs): ′′′ (41-70% = ′′′)
Cross-reactive T cell response (subject T, 11-17yrs): 61 SFU
Significant response as a percentage of maximal peptide SFU (subject U, 11-17yrs): ′′ (21-40% = ′′)
Cross-reactive T cell response (subject U, 11-17yrs): 21 SFU
Cross-reactive T cell response (subject V (3-5yrs/6-10yrs part)): 5 SFU
Cross-reactive T cell response (subject W (3-5yrs/6-10yrs part)): 0 SFU
Cross-reactive T cell response (subject Y (3-5yrs/6-10yrs part)): 4 SFU
Significant response as a percentage of maximal peptide SFU (subject five): + (>70% = +)
Cross-reactive T cell response (subject five (3-5yrs/6-10yrs part)): 38 SFU
Cross-reactive T cell response (subject nine, 11-17yrs): 2 SFU
Cross-reactive T cell response (subject seven (3-5yrs/6-10yrs part)): 6 SFU
Significant response as a percentage of maximal peptide SFU (subject six): + (>70% = +)
Cross-reactive T cell response (subject six (3-5yrs/6-10yrs part)): 12 SFU
Cross-reactive T cell response (subject ten (3-5yrs/6-10yrs part)): 8 SFU
Significant response as a percentage of maximal peptide SFU (subject two): ′′ (21-40% = ′′)
Cross-reactive T cell response (subject two (3-5yrs/6-10yrs part)): 20 SFU

QPFPQPEQPIPVQ
IFN-γ ELISpot response [1]: 5 SFU
Significant response as percentage of maximal peptide SFU [27]: ′′′ (41-70% = ′′′)
IFN-γ ELISpot response [2]: 76 SFU
Significant response as percentage of maximal peptide SFU (patient E, max peptide 224 SFU): ′′ (21-40% = ′′)
IFN-γ ELISpot response [3]: 103 SFU
Significant response as percentage of maximal peptide SFU (patient F, max peptide 178 SFU): ′′′ (41-70% = ′′′)
IFN-γ ELISpot response [4]: 3 SFU
IFN-γ ELISpot response [5]: 29 SFU
IFN-γ ELISpot response [6]: 10 SFU
Significant response as percentage of maximal peptide SFU (patient H, max peptide 17 SFU): ′′′ (41-70% = ′′′)
IFN-γ ELISpot response [7]: 95 SFU
Significant response as percentage of maximal peptide SFU (patient J, max peptide 196 SFU): ′′′ (41-70% = ′′′)
Significant response as percentage of maximal peptide SFU (patient K, max peptide 53 SFU): ′ (11-20% = ′)
Significant response as percentage of maximal peptide SFU (patient M, max peptide 48 SFU): ′′′ (41-70% = ′′′)
IFN-γ ELISpot response [8]: 2 SFU
IFN-γ ELISpot response [9]: 42 SFU
Significant response as percentage of maximal peptide SFU (patient P, max peptide 64 SFU): ′′′ (41-70% = ′′′)
IFN-γ ELISpot response [10]: 51 SFU
Significant response as percentage of maximal peptide SFU (patient Q, max peptide 97 SFU): ′′′ (41-70% = ′′′)
IFN-γ ELISpot response [11]: 27 SFU
Significant response as percentage of maximal peptide SFU (patient U, max peptide 81 SFU): ′′ (21-40% = ′′)
IFN-γ ELISpot response [12]: 27 SFU
Significant response as percentage of maximal peptide SFU (patient V, max peptide 35 SFU): + (>70% = +)
IFN-γ ELISpot response [13]: 9 SFU
IFN-γ ELISpot response [14]: 9 SFU
Significant response as percentage of maximal peptide SFU [23]: + (>70% = +)
IFN-γ ELISpot response [15]: 10 SFU
Significant response as percentage of maximal peptide SFU [24]: ′′ (21-40% = ′′)
IFN-γ ELISpot response [16]: 9 SFU
IFN-γ ELISpot response [17]: 11 SFU
Significant response as percentage of maximal peptide SFU [25]: + (>70% = +)
IFN-γ ELISpot response [18]: 126 SFU
IFN-γ ELISpot response [19]: 20 SFU
IFN-γ ELISpot response [20]: 53 SFU
Significant response as percentage of maximal peptide SFU [26]: + (>70% = +)

LQPFPQPQLPYPQP
IFN-γ ELISpot response [1]: 1 SFU
Significant response as percentage of maximal peptide SFU [27]: ′′ (21-40% = ′′)
IFN-γ ELISpot response [2]: 86 SFU
Significant response as percentage of maximal peptide SFU (patient E, max peptide 224 SFU): ′′ (21-40% = ′′)
IFN-γ ELISpot response [3]: 64 SFU
Significant response as percentage of maximal peptide SFU (patient F, max peptide 178 SFU): ′′ (21-40% = ′′)
IFN-γ ELISpot response [4]: 3 SFU
IFN-γ ELISpot response [5]: 22 SFU
IFN-γ ELISpot response [6]: 14 SFU
Significant response as percentage of maximal peptide SFU (patient H, max peptide 17 SFU): + (>70% = +)
IFN-γ ELISpot response [7]: 51 SFU
Significant response as percentage of maximal peptide SFU [21]: ′′′ (41-70% = ′′′)
Significant response as percentage of maximal peptide SFU (patient II, max peptide 15 SFU): + (>70% = +)
Significant response as percentage of maximal peptide SFU (patient J, max peptide 196 SFU): ′′′ (41-70% = ′′′)
Significant response as percentage of maximal peptide SFU (patient K, max peptide 53 SFU): ′ (11-20% = ′)
Significant response as percentage of maximal peptide SFU (patient M, max peptide 48 SFU): ′′′ (41-70% = ′′′)
IFN-γ ELISpot response [8]: 4 SFU
IFN-γ ELISpot response [9]: 25 SFU
Significant response as percentage of maximal peptide SFU (patient P, max peptide 64 SFU): ′′ (21-40% = ′′)
IFN-γ ELISpot response [10]: 38 SFU
Significant response as percentage of maximal peptide SFU (patient Q, max peptide 97 SFU): ′′ (21-40% = ′′)
IFN-γ ELISpot response [11]: 35 SFU
IFN-γ ELISpot response [12]: 10 SFU
Significant response as percentage of maximal peptide SFU (patient V, max peptide 35 SFU): ′′ (21-40% = ′′)
IFN-γ ELISpot response [13]: 14 SFU
Significant response as percentage of maximal peptide SFU (patient Y, max peptide 16 SFU): + (>70% = +)
IFN-γ ELISpot response [14]: 29 SFU
Significant response as percentage of maximal peptide SFU [22]: ′′′ (41-70% = ′′′)
Significant response as percentage of maximal peptide SFU [23]: ′′′ (41-70% = ′′′)
IFN-γ ELISpot response [15]: 17 SFU
Significant response as percentage of maximal peptide SFU [24]: ′′ (21-40% = ′′)
IFN-γ ELISpot response [16]: 5 SFU
IFN-γ ELISpot response [17]: 5 SFU
IFN-γ ELISpot response [18]: 93 SFU
IFN-γ ELISpot response [19]: 10 SFU
IFN-γ ELISpot response [20]: 21 SFU
Significant response as percentage of maximal peptide SFU [26]: ′′ (21-40% = ′′)

From patent publication US20170232083A1, “METHODS OF DIAGNOSIS AND TREATMENT OF CELIAC DISEASE IN CHILDREN” (priority 2014, published 2017)
